This passage reports IC50 and EC50 results from patent EP2276483B1, “SOLID FORMS COMPRISING (+)-2-[1-(3-ETHOXY-4-METHOXYPHENYL)-2-METHYLSULFONYLETHYL]-4-ACETYLAMINOISOINDOLINE-1,3-DIONE, COMPOSITIONS THEREOF, AND USES THEREOF” (CELGENE CORPORATION, priority 2008, dated 2009).

What all share (format): cell-based
One assay relates to TNF-α. The experiment in a line: LPS-induced TNF-α production from human PBMC. Conditions: LPS 100 ng/ml. As to the method: Lipopolysaccharide (LPS) is an endotoxin produced by gram-negative bacteria such as E. coli which induces production of many pro-inflammatory cytokines, including TNF-α. In peripheral blood mononuclear cells (PBMC), the TNF-α produced in response to LPS is derived from monocytes, which comprise approximately 5-20% of the total PBMC. Compounds were tested for the ability to inhibit LPS-induced TNF-α production from human PBMC as previously described (Muller et al., 1996, J. Med. Chem., 39:3238). PBMC from normal donors were obtained by Ficoll Hypaque (Pharmacia, Piscataway, NJ, USA) density centrifugation. Cells were cultured in RPMI (Life Technologies, Grand Island, NY, USA) supplemented with 10% AB± human serum (Gemini Bio-products, Woodland, CA, USA), 2 mM L-glutamine, 100 U/ml penicillin, and 100 µg/ml streptomycin (Life Technologies).
PBMC (2 x 10^5 cells) were plated in 96-well flat-bottom Costar tissue culture plates (Coming, NY, USA) in triplicate. Cells were stimulated with LPS (Sigma, St. Louis, MO, USA) at 100 ng/ml in the absence or presence of compounds. Compounds (Celgene Corp., Warren, NJ, USA) were dissolved in DMSO (Sigma) and further dilutions were done in culture medium immediately before use. The final DMSO concentration in all samples was 0.25%. Compounds were added to cells one hour before LPS stimulation. […]

For a further assay, the system named is IFN-γ. The experiment in a line: SEB-induced IFN-γ production in human PBMC. Conditions: 100 ng/ml SEB.
A further assay has as its system cAMP. Description: PGE2-induced cAMP elevation in human PBMC. Conditions: PGE2 (10µM). Here is the method:
Prostaglandin E2 (PGE2) binds to prostanoid receptors on monocytes, T cells and other leukocytes and consequently elevates intracellular cAMP levels, resulting in inhibition of cellular responses. The combination of PGE2 and a PDE4 inhibitor synergistically elevates cAMP levels in these cell types, and the elevation of cAMP in PBMC caused by PDE4 inhibitors in the presence of PGE2 is proportional to the inhibitory activity of that PDE4 inhibitor. Intracellular cAMP was measured in human PBMC as follows. PBMC were isolated as described above and plated in 96-well plates at 1 x 10^6 cells per well in RPMI-1640. The cells were pre-treated with compounds at 100, 10, 1, 0.1, 0.01, and 0 µM in a final concentration of 2% DMSO in duplicate at 37°C in a humidified incubator at 5% CO2 for one hour. The cells were then stimulated with PGE2 (10µM) (Sigma) for 1h. The cells were lysed with HCl, 0.1 N final concentration to inhibit phosphodiesterase activity and the plates were frozen at -20°C. The cAMP produced was measured using cAMP (low pH) Immunoassay kit (R&D Systems).

The subject of another assay is IL-8. The experiment in a line: Zymosan-induced IL-8 production in human neutrophils. Particulars: Neutrophil. As to the method:
Zymosan A, or the heat-killed yeast Saccharomyces cerevisiae, binds to the adhesion molecule Mac-1 on the neutrophil surface and triggers phagocytosis, cell activation and IL-8 production. Zymosan-induced IL-8 production was measured as previously described (Au et al., 1998, Brit. J. Pharm., 123:1260-1266) with the following modifications. Human neutrophils were purified as described above, plated in 96-well tissue culture plates at 3x10^5 cells/well in complete medium, treated with compounds at 10, 2, 0.4, 0.08, 0.016, 0.0032, 0.00064, and 0 µM in duplicate in a final DMSO concentration of 0.1% for 1 hour at 37°C 5% CO2. Neutrophils were then stimulated with unopsonized, boiled Zymosan A (Sigma) at 2.5 x 10^5 particles/well for 18 hours. Supernatants were harvested and tested for IL-8 by ELISA (R&D Systems).

With `CCOc1cc(C(CS(C)(=O)=O)N2C(=O)c3cccc(NC(C)=O)c3C2=O)ccc1OC` (single isomer, unassigned; (+)) [Compound A, (+)-2-[1-(3-ethoxy-4-methoxyphenyl)-2-methylsulfonylethyl]-4-acetylaminoisoindoline-1,3-dione], the IC50 (commonly the point on the concentration scale where inhibition reaches its midpoint) in the assay on TNF-α is 77 nM; with IFN-γ it was 46 nM; in the assay with IL-8, 94 nM. For the same molecule, the EC50 (as a rule, the concentration at which the effect is half-maximal) in the assay with cAMP is 1580 nM.
